The values that follow come from ChEMBL document CHEMBL1201862, “PubChem BioAssay data set” (2004).

Some test systems named below: LOX IMVI; SNB-75; UACC-62; A549; A498; K562; NCI-H522; MDA-MB-435; HOP-62; SW-620; ACHN; COLO 205; RXF 393; CAKI-1; HT-29; M14; SK-OV-3; OVCAR-5; SF-268; PC-3.
What all share (test): NCI-60 cell line screen, 48 h

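Step 1: Grow cells in 96-well plates. Step 2: Expose to compound for 48 hours at 5 concentrations. Step 3: Interpolate endpoints linearly; if unreached, use highest concentration. Here, GI50 denotes the concentration required for 50% inhibition of growth.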 The source made the active and inactive calls. Rule as the data show it: active = GI50 up to about 1.1 µM and inactive = higher. A value given as a limit tells only on which side of the number the result lay.

As for `CN(C)CCn1nc(N)c2nc3cc(C(F)(F)F)ccc3nc21`, the GI50 with LOX IMVI was 54.8 µM (inactive); in the assay on SNB-75, 15.5 µM (inactive); with UACC-62 it was > 100 µM (inactive); in the assay with A549, 58.2 µM (inactive); in the assay on A498 it was > 100 µM (inactive); in the assay on K562, > 100 µM (inactive). Also, the GI50 with NCI-H522 was 42 µM (inactive); in the assay with MDA-MB-435, > 100 µM (inactive); in the assay on HOP-62 it was 57.4 µM (inactive); in the assay with SW-620 it was 81.1 µM (inactive); in the assay with ACHN, > 100 µM (inactive); with COLO 205 it was 27.7 µM (inactive). In addition, the GI50 is 26.4 µM (inactive) with RXF 393; 90.2 µM (inactive) in the assay on CAKI-1; > 100 µM (inactive) in the assay on HT-29; > 100 µM (inactive) in the assay with M14; > 100 µM (inactive) in the assay with SK-OV-3; > 100 µM (inactive) with OVCAR-5. The GI50 with SF-268 is 94.6 µM (inactive); in the assay with PC-3, > 100 µM (inactive).

On to `CCCC(=O)N[C@H]1CCc2cc(OC)c(OC)c(OC)c2-c2ccc(SC)c(=O)cc21`, for which the GI50 in the assay with LOX IMVI, in the assay on SNB-75, with UACC-62, in the assay with A549, with A498 and in the assay on K562 was < 0.01 µM (active) in each case. The GI50 with NCI-H522, in the assay on MDA-MB-435, in the assay with HOP-62, in the assay on SW-620, with ACHN and in the assay on COLO 205 was < 0.01 µM (active) throughout. The GI50 with RXF 393 was 0.175 µM (active); in the assay with CAKI-1, < 0.01 µM (active); with HT-29, < 0.01 µM (active); in the assay on M14, < 0.01 µM (active); with SK-OV-3, 0.143 µM (active); in the assay with OVCAR-5, 0.278 µM (active). The GI50 in the assay with SF-268 and in the assay on PC-3 was < 0.01 µM (active) throughout.

As for `NS(=O)(=O)c1nn2c(Br)c(-c3ccccc3)nc2s1`, the GI50 in the assay with LOX IMVI is 1.95 µM (inactive); in the assay with SNB-75, 5.18 µM (inactive); with UACC-62, 4.23 µM (inactive); with A549, 6.44 µM (inactive); with A498, 17 µM (inactive); in the assay with K562 it was 2.2 µM (inactive). In addition, the GI50 was 1.61 µM (inactive) in the assay with NCI-H522; 4.45 µM (inactive) in the assay with MDA-MB-435; 14.9 µM (inactive) in the assay with HOP-62; 3.62 µM (inactive) in the assay with SW-620; 4.45 µM (inactive) in the assay with ACHN; 5.24 µM (inactive) in the assay on COLO 205. Also, the GI50 was 0.847 µM (active) in the assay on RXF 393; 3.03 µM (inactive) in the assay on CAKI-1; 2.49 µM (inactive) in the assay on HT-29; 3.31 µM (inactive) in the assay on M14; 14.7 µM (inactive) with SK-OV-3; 11.1 µM (inactive) in the assay with OVCAR-5. Moreover, the values for the GI50 in the assay on SF-268 and with PC-3 were 8.38 µM (inactive) and 6.03 µM (inactive), respectively.

For `CN(C)c1ccc(/C=N/NC2=N/C(=C\c3ccco3)C(=O)N2)cc1`, the GI50 with LOX IMVI, in the assay with SNB-75, in the assay with UACC-62, in the assay with A549, in the assay with A498 and in the assay on K562 was > 100 µM (inactive) in each case. The GI50 in the assay on NCI-H522, in the assay on MDA-MB-435, in the assay with HOP-62, in the assay on SW-620, in the assay on ACHN and with COLO 205 was > 100 µM (inactive) throughout. For the same molecule, the GI50 in the assay with RXF 393, with CAKI-1, with HT-29, in the assay on M14, with SK-OV-3 and in the assay on OVCAR-5 was > 100 µM (inactive) throughout. Also, the GI50 in the assay with SF-268 and with PC-3 was > 100 µM (inactive) each time.
